Source: patent US20250368645A1, “BETA CARBOLINE ANALOGUES AS SELECTIVE AND BIASED KAPPA OPIOID RECEPTORS AGONISTS FOR TREATING VARIOUS ASSOCIATED PATHOPHYSIOLOGICAL CONDITIONS” (COUNCIL OF SCIENTIFIC AND INDUSTRIAL RESEARCH, priority 2022, published 2025)
Where two headings read alike, the source gives them in different places.

Tests used:
[1] = tested on: SD rats; test: Neuropathic pain induced by chronic constriction injury (CCI) of sciatic nerve; type: in vivo, rat
[2] = target: DOR (Homo sapiens, UniProt P41143); test: GloSensor assay at DOR; type: cell-based; conditions: given as Log IC50 (negative values)
[3] = target: MOR (Homo sapiens, UniProt P35372); test: GloSensor assay at MOR; type: cell-based; conditions: given as Log IC50 (negative values)
[4] = tested on: C57Bl/6 mice; test: Tail flick assay for analgesia; type: in vivo
[5] = tested on: paclitaxel (PTX)-treated mice; test: Paclitaxel-induced peripheral neuropathy model; type: in vivo
[6] = target: T1, human KOR (Homo sapiens, UniProt P41145); test: GloSensor assay, Gi-mediated cAMP inhibition in HEK-293T cells transfected with human KOR; type: cell-based;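 as to agonist at KOR (pIC50): value taken from a statement in the text not a table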
Target sequence in this assay (P41145 whole entry): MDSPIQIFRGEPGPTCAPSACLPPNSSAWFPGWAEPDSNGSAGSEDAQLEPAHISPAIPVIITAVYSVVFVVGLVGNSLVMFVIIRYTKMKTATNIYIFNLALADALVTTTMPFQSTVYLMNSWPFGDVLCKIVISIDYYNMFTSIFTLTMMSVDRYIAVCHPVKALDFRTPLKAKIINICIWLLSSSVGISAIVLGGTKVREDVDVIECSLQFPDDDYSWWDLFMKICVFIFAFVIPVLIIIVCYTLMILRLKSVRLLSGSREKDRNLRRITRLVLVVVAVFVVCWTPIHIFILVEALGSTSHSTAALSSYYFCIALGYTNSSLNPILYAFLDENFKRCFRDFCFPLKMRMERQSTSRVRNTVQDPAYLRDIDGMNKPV

[7] = target: T1, human KOR; test: β-arrestin2 Tango assay in HTLA cells transiently transfected with human KOR; type: cell-based; conditions: Table 2, KOR; read-out: B-arrestin Tango Assay (pEC50) (converted)
Target sequence in this assay (P41145 whole entry, added parts left off): as the sequence (P41145 whole entry) above

[8] = tested on: C57Bl/6 mice; test: Hargreaves assay for thermal analgesia after intracerebroventricular administration; type: in vivo; conditions: 10 nmol
[9] = 8abd 10 mg/kg/day p.o., U50488 5 mg/kg/day i.p., 7 days, tested 16 hours after drug administration
[10] = 8abd 5 and 10 mg/kg p.o., duloxetine 10 mg/kg, 16 days

Chain of MOR (P35372 whole entry): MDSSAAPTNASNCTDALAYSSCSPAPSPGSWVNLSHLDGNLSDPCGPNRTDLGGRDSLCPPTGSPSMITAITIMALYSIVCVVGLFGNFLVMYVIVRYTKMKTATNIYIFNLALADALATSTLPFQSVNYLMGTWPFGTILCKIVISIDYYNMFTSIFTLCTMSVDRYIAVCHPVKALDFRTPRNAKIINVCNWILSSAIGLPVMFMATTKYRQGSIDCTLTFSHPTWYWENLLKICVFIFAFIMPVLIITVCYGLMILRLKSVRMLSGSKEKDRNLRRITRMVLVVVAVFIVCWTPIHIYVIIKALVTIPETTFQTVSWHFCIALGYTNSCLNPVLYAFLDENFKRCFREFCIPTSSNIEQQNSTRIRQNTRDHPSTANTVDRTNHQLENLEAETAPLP
Chain of DOR (P41143 whole entry): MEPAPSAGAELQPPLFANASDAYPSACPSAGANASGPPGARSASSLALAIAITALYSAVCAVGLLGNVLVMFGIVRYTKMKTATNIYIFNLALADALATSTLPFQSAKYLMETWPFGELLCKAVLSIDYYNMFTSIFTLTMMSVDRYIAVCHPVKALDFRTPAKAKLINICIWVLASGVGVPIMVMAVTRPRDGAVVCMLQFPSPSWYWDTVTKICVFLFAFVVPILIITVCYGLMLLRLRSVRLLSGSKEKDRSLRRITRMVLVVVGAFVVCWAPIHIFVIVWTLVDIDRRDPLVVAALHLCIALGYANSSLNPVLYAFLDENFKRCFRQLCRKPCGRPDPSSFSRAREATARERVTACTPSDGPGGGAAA

Fc1ccc(-n2c[n+]3ccc4c5ccccc5[nH]c4c3c2-c2ccc(Br)cc2)cc1.[Cl-] [8abd, 1-(4-Bromophenyl)-2-(4-fluorophenyl)-2,11-dihydrolmidazo[1′,5′:1,2]pyrido[3,4-b]indol-4-ium chloride]
CCI-induced thermal hyperalgesia, acute administration ([1]; 8abd 10 mg/kg p.o., U50488 5 mg/kg i.p., Hargreaves): robustly inhibited
CCI-induced mechanical pain, acute administration ([1]; 8abd 10 mg/kg p.o., U50488 5 mg/kg i.p., von frey): robustly inhibited
CCI-induced mechanical pain, sub-chronic administration [1, 9]: significantly blocked
CCI-induced thermal hyperalgesia, sub-chronic administration [1, 9]: significantly blocked
IC50 [2]: > 10000 nM
IC50 [3]: > 10000 nM
tail flick latency time ([4]; 10 mg/kg or 5 mg/kg p.o., in comparison to vehicle treated mice): significantly increased
duration of the analgesic effect ([4]; 8abd 5 and 10 mg/kg p.o., U50488 5 mg/kg i.p.): comparable to U50488
analgesic effect in presence of selective KOR antagonist Norbinaltrophamine (NBN) ([4]; NBN 5 mg/kg i.p. (legend: 10 mg/kg i.p.)): completely blocked
mechanical pain (mechanical hyperalgesia, Von frey hair test), chronic administration [5, 10]: significantly improved
thermal hyperalgesia (Hargreaves test), chronic administration [5, 10]: significantly improved
improvement in both pain behaviors relative to duloxetine ([5]; chronic administration): better improvement in both pain behaviors as compared to duloxetine
G-Protein Bias factor (IC50 -Glosensor/- EC50 - Tango) ([6]; KOR, GloSensor versus Tango): 2.33
IC50 ([6]; Table 2, KOR, read-out: GloSensor Assay (pIC50) (converted)): 1.05 nM
IC50 ([6]; given as Log IC50 (negative values), agonist activity, inhibition of FSK-stimulated cAMP, read-out: GloSensor Assay (Log IC50) KOR (converted)): 5.01 nM
IC50 ([6]; read-out: agonist at KOR (pIC50) (converted)): < 31.6 nM
EC50 [7]: 224 nM
analgesic activity (paw withdrawal latency) [8]: exhibited analgesic activity
